Measured values published in patent US20070066608A1, “Novel indole derivatives with an improved antipsychotic activity” (priority 2003, published 2007).

Columns and labels:
[1] = target: T1, Human Dopamine D2L receptor (Homo sapiens, UniProt P14416); assay: Radioligand binding experiment for dopamine D2 receptor (hD2), [3H]Spiperone; settings: membranes of D2L receptor-transfected CHO cells, read-out: pIC50 D2 (converted)
T1 construct: expressed in transfected cells; host or cells: CHO cells
Protocol: (§1) The interaction of the compounds of Formula (I) with dopamine-receptors, h5HT-transporter and h5HT1A receptor was assessed in in vitro radioligand binding experiments. In general, a low concentration of a radioligand with a high binding affinity for a particular receptor or transporter is incubated with a sample of a tissue preparation enriched in a particular receptor or transporter or with a preparation of cells expressing cloned human receptors in a buffered medium. During the incubation, the radioligand binds to the receptor or transporter. When equilibrium of binding is reached, the receptor bound radioactivity is separated from the non-bound radioactivity, and the receptor- or transporter-bound activity is counted The interaction of the test compounds with the receptor is assessed in competition binding experiments. Various concentrations of the test compound are added to the incubation mixture containing the receptor- or transporter preparation and the radioligand. The test compound in proportion to its binding affinity and its concentration inhibits binding of the radioligand.
Human Dopamine D2L receptor-transfected CHO cells were collected by scraping into ice-cold Tris-HCl buffer ([…], pH 7.4). The suspension was centrifuged (23 500×g, 10 min, 4° C.) and pellets stored at −70° C. until require. They were then thawed and briefly homogenised using an Ultra-Turrax T25 homogeniser prior to dilution to an appropriate protein concentration optimised for specific and non-specific binding. [^3H]Spiperone (NEN, specific activity˜70 Ci/mmol) was diluted in Tris-HCl assay buffer containing NaCl, CaCl2, MgCl2, KCI (50, 120, 2, 1, and 5 mM respectively, adjusted to pH 7.7 with HCl) at a concentration of 2 nmol/L. Prepared radioligand (50 μl) was then incubated (30 min, 37° C.) with membrane preparations pre-diluted to an appropriate protein concentration (400 μl), and with 50 μl of either the 10% DMSO control, Butaclamol (10^−6 mol/L final concentration), or compound of interest. Membrane-bound activity was detected by filtration through a Packard Filtermate harvester onto Unifilterplates, washing with ice-old Tris-HCl buffer (50 mM; pH8.0; 3×4 ml). Filters were allowed to dry before adding scintillation fluid and counting in a Topcount scintillation counter. % Specific bound and competition binding curves were calculated using S-Plus software (Insightful).

[2] = target: T2, Human Dopamine D3 receptor (Homo sapiens, UniProt P35462); assay: Radioligand binding experiment for dopamine D3 receptor (hD3), [125I]Iodosulpride; settings: membranes of D3 receptor-transfected CHO cells, read-out: pIC50 D3 (converted)
T2 construct: expressed in transfected cells; host or cells: CHO cells
T2 sequence (P35462 whole entry): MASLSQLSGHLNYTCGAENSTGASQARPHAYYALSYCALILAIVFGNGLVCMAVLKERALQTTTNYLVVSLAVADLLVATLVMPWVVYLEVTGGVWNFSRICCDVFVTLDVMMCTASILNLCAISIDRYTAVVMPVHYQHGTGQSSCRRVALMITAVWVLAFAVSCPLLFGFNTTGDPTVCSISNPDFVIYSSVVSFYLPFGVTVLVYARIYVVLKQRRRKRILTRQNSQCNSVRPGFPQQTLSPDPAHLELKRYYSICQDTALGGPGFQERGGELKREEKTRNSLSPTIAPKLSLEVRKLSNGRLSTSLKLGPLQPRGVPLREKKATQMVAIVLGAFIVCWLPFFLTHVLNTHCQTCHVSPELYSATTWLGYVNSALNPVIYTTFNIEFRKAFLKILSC
Protocol: as §1
Human Dopamine D3 receptor-transfected CHO cells were collected by scraping into ice-cold Tris-HCl buffer (50 mM, pH 7.4). The suspension was centrifuged (23 500×g, 10 min, 4° C.) and pellets stored at −70° C. until required. They were then thawed and briefly homogenised using an Ultra-Turrax T25 homogeniser prior to dilution to an appropriate protein concentration optimised for specific and non-specific binding. [^125]Iodosulpride (Amersham, specific activity 2000 Ci/mmol) was diluted in Tris-HCl assay buffer containing NaCl, CaCl2, MgCl2, KCl and BSA (50, 120, 2, 1, 5 mM, 0.1% respectively, adjusted to pH 7.7 with HCl) at a concentration of 2 nmol/L. Prepared radioligand (20 μl) was incubated (60 min, RT) and with 20 μl of either the 10% DMSO control, Risperidone (10^−6 mol/L final concentration), or compound of interest, then with membrane preparations (80 μl). Overnight incubation followed after addition of WGA-coated PVT SPA beads (250 μl; Amersham) and membrane-bound counts measured in a Wallac Microbeta. % Specific bound and competition binding curves were calculated using S-Plus software (Insightful).

human 5HT transporter = target: T3, human 5HT transporter (Homo sapiens, UniProt P31645); assay: Binding experiment for 5-HT transporter, [3H]Paroxetine; settings: 5HT transporter-transfected HEK cells, [3H]Paroxetine binding; read-out: pIC50 5HT reuptake inhibition (converted)
T3 construct: host or cells: HEK cells
T3 sequence (P31645 whole entry): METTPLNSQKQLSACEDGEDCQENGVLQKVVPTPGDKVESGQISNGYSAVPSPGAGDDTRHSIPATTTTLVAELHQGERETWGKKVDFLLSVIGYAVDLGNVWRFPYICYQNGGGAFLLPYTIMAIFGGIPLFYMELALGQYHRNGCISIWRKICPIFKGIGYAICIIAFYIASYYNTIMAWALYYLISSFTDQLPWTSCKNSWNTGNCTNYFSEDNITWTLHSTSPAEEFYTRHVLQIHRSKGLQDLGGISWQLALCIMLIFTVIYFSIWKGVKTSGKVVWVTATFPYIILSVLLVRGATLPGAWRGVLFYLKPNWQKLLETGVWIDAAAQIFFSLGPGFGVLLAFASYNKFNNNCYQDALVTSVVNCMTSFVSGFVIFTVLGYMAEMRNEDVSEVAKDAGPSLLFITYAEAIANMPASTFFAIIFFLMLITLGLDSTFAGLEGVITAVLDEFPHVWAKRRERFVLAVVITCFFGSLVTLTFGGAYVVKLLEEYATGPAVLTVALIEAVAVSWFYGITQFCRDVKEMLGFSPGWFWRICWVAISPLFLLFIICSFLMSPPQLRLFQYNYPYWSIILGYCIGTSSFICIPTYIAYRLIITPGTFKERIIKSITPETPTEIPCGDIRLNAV
Protocol: as §1
Frozen human 5HT transporter-transfected HEK cells (Perkin Elmer, Brussels) were thawed and briefly homogenised using an Ultra-Turrax T25 homogeniser prior to dilution to an appropriate protein concentration optimised for specific and non-specific binding. [^3H]Paroxetine (NEN, specific activity 20 Ci/mmol) was diluted in Tris-HCl assay buffer containing NaCl and KCl (50 mM 120 mM and 5 mM, respectively; pH 7.4) at a concentration of 5 nmol/L. Prepared radioligand (25 μl) was then incubated (60 min, 25° C.) with membrane preparations (200 μl) and with 25 μl of either 10% DMSO control, Imipramine (10^−6 mol/L final concentration), or compound of interest Membrane-bound activity was detected by filtration through a Packard Filtermate harvester onto Unifilterplates pre-soaked in 0.1% PEI, washing with ice-cold assay buffer (3×4 ml). Filters were dried prior to addition of scintillation fluid and then counting in a Topcount scintillation counter. % Specific bound and competition binding curves were calculated using S-Plus software (Insightful).

Human 5HT1A receptor = target: T4, Human 5HT1A receptor (Homo sapiens, UniProt P08908); assay: Binding experiment for 5-HT1A receptor, [3H]8OHDPAT; settings: membranes of 5HT1A receptor-transfected L929 cells, read-out: pIC50 5HT1A (converted)
T4 construct: expressed in transfected cells; host or cells: L929 cells (stably transfected)
T4 sequence (P08908 1-422): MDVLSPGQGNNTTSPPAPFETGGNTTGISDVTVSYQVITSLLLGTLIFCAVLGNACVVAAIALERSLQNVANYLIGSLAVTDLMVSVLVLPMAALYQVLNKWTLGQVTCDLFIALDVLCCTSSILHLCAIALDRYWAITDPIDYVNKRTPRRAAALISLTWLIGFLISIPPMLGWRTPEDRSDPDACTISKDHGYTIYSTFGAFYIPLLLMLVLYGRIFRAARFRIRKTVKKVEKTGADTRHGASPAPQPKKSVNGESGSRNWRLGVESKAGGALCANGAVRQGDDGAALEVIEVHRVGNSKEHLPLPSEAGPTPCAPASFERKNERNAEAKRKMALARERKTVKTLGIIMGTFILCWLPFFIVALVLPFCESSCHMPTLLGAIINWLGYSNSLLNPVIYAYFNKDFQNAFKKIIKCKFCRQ
Protocol: as §1
Human 5HT1A receptor-transfected L929 cells were collected by scraping into ice-cold Tris-HCl buffer (50 mM, pH 7.4). The suspension was centrifuged (23 500×g, 10 min, 4° C.) and pellets stored at −70° C. until required. They were then thawed and briefly homogenised using an Ultra-Turrax T25 homogeniser prior to dilution to an appropriate protein concentration optimised for specific and non-specific binding. [^3H]8OHDPAT (NEN, specific activity 127 Ci/mmol) was diluted in Tris-HCl assay buffer containing CaCl2 (50 mM and 4 mM, respectively; pH 7.7) at a concentration of 5 nmol/L. Prepared radioligand (50 μl) was then incubated (30 min, 37° C.) with membrane preparations from L929 cells stably-transfected with the h5HT1A gene construct (400 μl) and with 50 μl of either the 10% DMSO control, spiroxatrine (10^−6 mol/L final concentration), or compound of interest. Membrane-bound activity was detected by filtration through a Packard Filtermate harvester onto Unifaltemplates, washing with ice-cold Tris-HCI buffer (3×4 ml), followed by drying. Scintillation fluid was added and membranes were counted in a Topcount scintillation counter. % Specific bound and competition binding curves were calculated using S-Plus software (Insightful).

T1 sequence (P14416 whole entry): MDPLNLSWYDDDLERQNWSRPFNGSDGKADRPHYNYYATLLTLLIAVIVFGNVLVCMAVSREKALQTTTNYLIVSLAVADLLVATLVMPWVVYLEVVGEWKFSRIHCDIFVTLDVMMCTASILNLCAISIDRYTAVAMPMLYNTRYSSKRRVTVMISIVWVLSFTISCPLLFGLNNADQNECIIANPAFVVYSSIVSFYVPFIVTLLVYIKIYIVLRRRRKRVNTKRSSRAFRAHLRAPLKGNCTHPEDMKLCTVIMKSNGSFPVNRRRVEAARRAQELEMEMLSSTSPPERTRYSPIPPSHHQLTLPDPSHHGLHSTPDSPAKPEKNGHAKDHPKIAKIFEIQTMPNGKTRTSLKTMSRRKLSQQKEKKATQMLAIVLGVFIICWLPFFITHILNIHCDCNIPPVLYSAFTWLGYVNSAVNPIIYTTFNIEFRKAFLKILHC

SMILES | IC50 [1] [nM] | IC50 [2] [nM] | IC50 (human 5HT transporter) [nM] | IC50 (Human 5HT1A receptor) [nM]
CN1CC(CNCCCc2c[nH]c3ccc(F)cc23)Oc2ncccc21 (stereo not drawn) [Compound 3] | > 1000 | 398 | 200 | 3.16
O=[N+]([O-])c1ccc2[nH]cc(C3=CCN(CC4COc5ccncc5O4)CC3)c2c1 (racemic) [Compound 14] | 100 |  | 100 | 200
Fc1cccc2[nH]cc(C3=CCN(CC4COc5ccncc5O4)CC3)c12 (stereo not drawn) [Compound 12] |  | 158 | 100 | 
Fc1ccc2[nH]cc(C3CCN(CC4COc5ccncc5O4)CC3)c2c1 (stereo not drawn) [Compound 5] | 79.4 | 6.31 | 126 | 39.8
Brc1ccc2[nH]cc(C3=CCN(CC4COc5ccncc5O4)CC3)c2c1 (stereo not drawn) [Compound 13] | 158 |  | 100 | 
CN1CC(CN2CCC(c3c[nH]c4ccc(F)cc34)CC2)Oc2ncccc21 (stereo not drawn) [Compound 2] | 398 | 100 | 316 | 15.8
Fc1ccc2[nH]cc(CC3CCN(CC4COc5ccncc5O4)CC3)c2c1 (stereo not drawn) [Compound 25] | 794 |  | 63.1 | 
Oc1ccc2[nH]cc(C3CCN(CC4COc5ccncc5O4)CC3)c2c1 (stereo not drawn) [Compound 19] | 63.1 |  | 316 | 
Fc1cccc2c(C3CCN(CC4COc5ccncc5O4)CC3)c[nH]c12 (stereo not drawn) [Compound 24] | 25.1 |  | 316 | 
Fc1ccc2[nH]cc(CCCNCC3COc4cccnc4O3)c2c1 (stereo not drawn) [Compound 11] | 158 | 398 | 316 | 1.26
O=[N+]([O-])c1ccc2[nH]cc(C3=CCN(CC4COc5ccncc5O4)CC3)c2c1 (single isomer, unassigned) [Compound 15] | 200 |  | 10 | 
Fc1cccc2c(C3=CCN(CC4COc5ccncc5O4)CC3)c[nH]c12 (stereo not drawn) [Compound 17] | 126 |  | 50.1 | 
Fc1ccc2[nH]cc(CCCNCC3Oc4cccnc4O3)c2c1 (stereo not drawn) [Compound 9] | > 1000 | 251 | 501 | 31.6
O=[N+]([O-])c1ccc2[nH]cc(C3=CCN(CC4COc5ccncc5O4)CC3)c2c1 (single isomer, unassigned) [Compound 16] | 316 |  | 251 | 
Fc1ccc2[nH]cc(C3=CCN(CC4COc5cccnc5O4)CC3)c2c1 (stereo not drawn) [I, reference compound] | 251 | 501 | 200 | 126
N#Cc1ccc2[nH]cc(C3CCN(CC4COc5ccncc5O4)CC3)c2c1 (single isomer, unassigned) [Compound 22] | 794 |  | 501 | 10
CN1CC(CN2CC=C(c3c[nH]c4ccc(F)cc34)CC2)Oc2ncccc21 (stereo not drawn) [Compound 1] | 200 | 79.4 | 15.8 | 12.6
N#Cc1ccc2[nH]cc(C3CCN(CC4COc5ccncc5O4)CC3)c2c1 (racemic) [Compound 20] | 63.1 |  | 39.8 | 
N#Cc1ccc2[nH]cc(C3CCN(CC4COc5ccncc5O4)CC3)c2c1 (single isomer, unassigned) [Compound 21] | 79.4 |  | 20 | 31.6
Clc1ccc2[nH]cc(C3CCN(CC4COc5ccncc5O4)CC3)c2c1 (stereo not drawn) [Compound 18] | 31.6 |  | 200 | 
Fc1ccc2[nH]cc(CCCNCC3COc4ccncc4O3)c2c1 (stereo not drawn) [Compound 6] | 200 | 31.6 | 316 | 6.31
Fc1ccc2c(C3CCN(CC4COc5ccncc5O4)CC3)c[nH]c2c1 (stereo not drawn) [Compound 23] | 25.1 |  | 251 | 
